US20040192673A1, “N-aroyl cyclic amine derivatives as orexin receptor antagonists” (priority 2001, published 2004)

How the values were obtained:
[1] = tested on: rat; assay: Rat sleep/EEG studies; type: in vivo; conditions: central administration at the onset of the normal sleep period
From the text: Therefore antagonists of its receptor may be useful in the treatment of sleep disorders including insomnia.

[2] = tested on: freely-feeding rats; conditions: central administration, 4 hour time period; cited from earlier work

orexin-A: ligand for the orexin-1 receptor, an agonist of the orexin receptors; 33-residue peptide, sequence in b167 (QPLPDCCRQKTCSCRLYELLHGAGNHAAGILTL; not fully specified; Orexin-A; UniProt O43612 34-66, looked up)
arousal (sleep/EEG) [1]: dose-related increase in arousal
increase in food intake over control rats receiving vehicle [2]: approximately four-fold
